Experimental data from paper PMC8167858, “Crystal structure of a novel homodimeric L‐ribulose 3‐epimerase from Methylomonus sp” (FEBS Open Bio, 2021).

Assays:
his_MetLRE = biological target: T1, his_MetLRE (Methylomonas sp. DH-1, UniProt A0A172U6X0); assay: X-ray crystal structure, […] Å; assay type: binding; settings: 0.1 M HEPES pH 7.5, PEG 8000, 8% ethylene glycol
T1 construct: gene AYM39_05640; full length 286 aa, N-terminal His-tag from pET15b (kept), E. coli BL21(DE3), homodimer
T1 sequence (A0A172U6X0 1-286): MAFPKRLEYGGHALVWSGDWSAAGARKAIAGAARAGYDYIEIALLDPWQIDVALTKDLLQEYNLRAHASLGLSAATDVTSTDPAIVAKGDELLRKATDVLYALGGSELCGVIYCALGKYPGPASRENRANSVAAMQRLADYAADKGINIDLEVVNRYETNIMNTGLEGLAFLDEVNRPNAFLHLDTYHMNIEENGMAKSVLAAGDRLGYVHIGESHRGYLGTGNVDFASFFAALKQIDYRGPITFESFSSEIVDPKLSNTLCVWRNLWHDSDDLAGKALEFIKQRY

MetLRE (MetLRE_his) [1] = biological target: T2, MetLRE (MetLRE_his) (Methylomonas sp. DH-1, UniProt A0A172U6X0); assay: thermal shift assay (SYPRO Orange); assay type: binding; settings: melting temperature, not a shift: reference with Mn alone Tm1_Mn 72.5 ± 0.03 °C; 4 mM D-allulose, 0.8 mM MnCl2, 40 mM Tris/HCl pH 7.6; two-step unfolding, first transition
T2 construct: gene AYM39_05640
T2 sequence (A0A172U6X0 1-286): T1 sequence (A0A172U6X0 1-286)
Excerpt: thermal shift assay (SYPRO Orange) on MetLRE (MetLRE_his) | in the presence of Mn and D‐allulose (cyan line)

his_MetLRElong2 = biological target: T3, his_MetLRElong2 (Methylomonas sp. DH-1, UniProt A0A172U6X0, Y9I/Y37F/INS286TAIKTIELH/Y286L, form not given); assay: X-ray crystal structure, […] Å; assay type: binding; settings: 0.1 M HEPES pH 7.5, PEG 8000, 8% ethylene glycol
T3 construct: gene AYM39_05640; full length with Y9I, Y37F, Y286L and nine extra residues TAIKTIELH added after residue 286 at the C terminus; N-terminal His-tag from pET15b (kept), E. coli BL21(DE3), homodimer

MetLRE (MetLRE_his) [2] = biological target: T2, MetLRE (MetLRE_his); assay: X-ray crystal structure, […] Å; assay type: binding; settings: crystal soaked in 15% (w/v) D-fructose; catalytic site with Mn2+; second site: beta-D-fructopyranose on surface near C terminus of Mol-A
MetLRE (MetLRE_his) [3] = biological target: T2, MetLRE (MetLRE_his); assay: X-ray crystal structure, […] Å; assay type: binding
[4] = biological target: the molecule itself; assay: crystal structure; his_MetLRE (with D-allulose) and his_MetLRElong2 (with D-fructose); reservoir 0.1 M HEPES pH 7.5, 10% PEG 8000, 8% ethylene glycol; space group P1, six and eight molecules in an asymmetric unit; symmetry operation and PISA analysis
[5] = substrate: O=C(CO)[C@@H](O)[C@@H](O)CO; assay: epimerization, product by HPLC; assay type: biochemical, Methylomonas sp. DH-1; settings: 50 mM Tris/HCl pH 7.5, 1 mM MnCl2, 70 °C (conditions of the specificity assay)
[6] = biological target: the molecule itself; assay: crystal structure; MetLRE_his crystals, alone and soaked with D-fructose, D-allulose or L-tagatose; reservoir 0.2 M MgCl2, 0.1 M Tris/HCl pH 8.5, 25% PEG3350, 293 K; two molecules in an asymmetric unit

OCC1(O)OC[C@@H](O)[C@@H](O)[C@H]1O (stereo partly drawn) [D-allulose]
X-ray crystal structure, 2.05 Å (his_MetLRE): His_MetLRE in complex with D‐allulose was obtained in the triclinic space group P1
Tm1_MnA (MetLRE (MetLRE_his) [1]): 78.5 ± 0.1 °C

OCC1(O)OC[C@@H](O)[C@@H](O)[C@@H]1O (stereo partly drawn) [D-fructose]
X-ray crystal structure, 1.58 Å (his_MetLRElong2): the crystal structure of his_MetLRElong2 in complex with D‐fructose was determined
X-ray crystal structure, 1.80 Å (MetLRE (MetLRE_his) [2]): MetLRE_his in complex with D‐fructose was crystallized in the orthorhombic space group

OCC1(O)OC[C@H](O)[C@@H](O)[C@@H]1O (stereo partly drawn) [L-sorbose]
X-ray crystal structure, 1.70 Å (MetLRE (MetLRE_his) [3]; formed from soaked L-tagatose in crystal, catalytic site of Mol-A with Mn2+): L‐sorbose (C3 epimer of L‐tagatose) was bound in the catalytic site

OCC1(O)OC[C@H](O)[C@@H](O)[C@H]1O (stereo partly drawn) [L-tagatose]
X-ray crystal structure, 1.70 Å (MetLRE (MetLRE_his) [3]; crystal soaked in 15% (w/v) L-tagatose, catalytic site of Mol-B with Mn2+, second site: alpha-L-tagatopyranose on surface of Mol-B): The bound L‐tagatose was found in the catalytic site of Mol‐B

B1: N-terminal His-tagged MetLRElong2 (his_MetLRE with nine additional residues TAIKTIELH at the C terminus and three mutations Y9I, Y37F, Y286L) (enzyme, Methylomonas sp. DH-1)
chain: MAFPKRLEIGGHALVWSGDWSAAGARKAIAGAARAGFDYIEIALLDPWQIDVALTKDLLQEYNLRAHASLGLSAATDVTSTDPAIVAKGDELLRKATDVLYALGGSELCGVIYCALGKYPGPASRENRANSVAAMQRLADYAADKGINIDLEVVNRYETNIMNTGLEGLAFLDEVNRPNAFLHLDTYHMNIEENGMAKSVLAAGDRLGYVHIGESHRGYLGTGNVDFASFFAALKQIDYRGPITFESFSSEIVDPKLSNTLCVWRNLWHDSDDLAGKALEFIKQRLTAIKTIELH
notes: L-ribulose 3-epimerase from Methylomonas sp; DH-1, NCBI WP_064020855.1, 286 a.a., with three mutations; nine additional residues at the C terminus, chosen on the tetramer form of AgDAE; source: E. coli BL21(DE3) (pET15b, plasmid pETMetLRElong2), purified (HisTrap HP); not shown: His tag, N-terminal, kept
stoichiometry N [4]: 2

B2: MetLRE (MetLRE_his) (Methylomonas sp. DH-1) (protein)
chain: T1 sequence (A0A172U6X0 1-286)
Km [5]: 22.4 ± 3.4 mM
kcat [5]: 82.05 ± 5.77 s⁻¹

B3: C-terminal His-tagged L-ribulose 3-epimerase from Methylomonas sp. DH-1 (MetLRE_his) (enzyme, UniProt A0A172U6X0 1-286, looked up)
chain: T1 sequence (A0A172U6X0 1-286)
notes: L-ribulose 3-epimerase (putative sugar isomerase/epimerase) from Methylomonas sp; DH-1, NCBI WP_064020855.1, 286 a.a; synthesized gene amplified from the start codon to the last codon (Y286), then a linker beginning at Gly287 and the His tag; Linker and tag follow Y286: Gly287 and Ser288 are in the linker; also called putative sugar isomerase/epimerase; source: E. coli JM109 (pQE60, plasmid …)
stoichiometry N [6]: 2

B4: N-terminal His-tagged L-ribulose 3-epimerase from Methylomonas sp. DH-1 (his_MetLRE) (enzyme, UniProt A0A172U6X0 1-286, looked up)
chain: T1 sequence (A0A172U6X0 1-286)
notes: L-ribulose 3-epimerase from Methylomonas sp; DH-1, NCBI WP_064020855.1, 286 a.a; primers from the start codon to the stop codon; N-terminal tag and additional residues come from pET15b; source: E. coli BL21(DE3) (pET15b, plasmid pETMetLRE), purified (HisTrap HP); not shown: His tag, N-terminal, kept
stoichiometry N [4]: 2
